Measured values reported in patent US6313171A, “Method for preventing or treating elevated blood lipid level-related diseases by administering cinnamic acid derivatives” (Korea Research Institute of Bioscience & Biotechnology, priority 1998, dated 2001).

Key:
[1] = system: liver; assay: Prevention of hepatic diseases: microscopic fatty liver grading in rabbits; assay type: in vivo, rabbit (New Zealand White); details: for microscopic features of the liver: FIGS. 2A-2E, control: many cells containing excessive fat around the central vein; for fatty liver grade (1+ to 4+): grades 1+(0-25%), 2+(26-50%), 3+(51-75), 4+(76-100%), rabbits, 8 weeks, Control 3.2 ± 0.3
Experimental: (§1) 30 three-month-old male New Zealand White rabbits (Yeonam Horticulture and Animal Husbandry College, Korea), each weighing about 2.5 to 2.6 kg, were raised under condition of temperature 20±2° C., relative humidity 55±5%, and photoperiod 12L/12D. The rabbits were divided into 5 groups and 5 groups of rabbits were fed with 5 different diets, i.e., RC4 diet (Oriental Yeast Co., Japan) containing 1% cholesterol (Control group); 1% cholesterol plus 1 mg/kg Lovastatin® (Merck, U.S.A.) (Lovastatin group); 1% cholesterol plus 0.1% 4-hydroxycinnamic acid (4-hydroxycinnamic acid group); 1% cholesterol plus 0.1% 3,4-dihydroxycinnamic acid (3,4-dihydroxycinnamic acid group); and 1% cholesterol plus 0.1% 3,4-dihydroxyhydrocinnamic acid (3,4-dihydroxyhydrocinnamic acid group), respectively. RC4 diet comprises 7.6% moisture, 22.8% crude protein, 2.8% crude fat, 8.8% crude ash, 14.4% crude cellulose and 43.6% soluble nitrogen-free substances. Cinnamic acid derivatives were purchased from Sigma Chemical Co. (St. Louis, Mo.).
(§2) The rabbits were fed for 8 weeks while being allowed free access to the diets and water.

[2] = molecular target: T1, HMG-CoA reductase (Rattus norvegicus, UniProt P51639); assay: HMG-CoA reductase activity assay, liver microsomes of the fed rats; assay type: biochemical; details: liver microsomes of rats fed 0.1% in 1% cholesterol diet; Control 0
T1 construct: the supernatant was ultracentrifuged at 100,000×g for 60 minutes to obtain microsomal precipitates; from tissue; host or cells: rat liver microsomes
T1 sequence (P51639 1-887): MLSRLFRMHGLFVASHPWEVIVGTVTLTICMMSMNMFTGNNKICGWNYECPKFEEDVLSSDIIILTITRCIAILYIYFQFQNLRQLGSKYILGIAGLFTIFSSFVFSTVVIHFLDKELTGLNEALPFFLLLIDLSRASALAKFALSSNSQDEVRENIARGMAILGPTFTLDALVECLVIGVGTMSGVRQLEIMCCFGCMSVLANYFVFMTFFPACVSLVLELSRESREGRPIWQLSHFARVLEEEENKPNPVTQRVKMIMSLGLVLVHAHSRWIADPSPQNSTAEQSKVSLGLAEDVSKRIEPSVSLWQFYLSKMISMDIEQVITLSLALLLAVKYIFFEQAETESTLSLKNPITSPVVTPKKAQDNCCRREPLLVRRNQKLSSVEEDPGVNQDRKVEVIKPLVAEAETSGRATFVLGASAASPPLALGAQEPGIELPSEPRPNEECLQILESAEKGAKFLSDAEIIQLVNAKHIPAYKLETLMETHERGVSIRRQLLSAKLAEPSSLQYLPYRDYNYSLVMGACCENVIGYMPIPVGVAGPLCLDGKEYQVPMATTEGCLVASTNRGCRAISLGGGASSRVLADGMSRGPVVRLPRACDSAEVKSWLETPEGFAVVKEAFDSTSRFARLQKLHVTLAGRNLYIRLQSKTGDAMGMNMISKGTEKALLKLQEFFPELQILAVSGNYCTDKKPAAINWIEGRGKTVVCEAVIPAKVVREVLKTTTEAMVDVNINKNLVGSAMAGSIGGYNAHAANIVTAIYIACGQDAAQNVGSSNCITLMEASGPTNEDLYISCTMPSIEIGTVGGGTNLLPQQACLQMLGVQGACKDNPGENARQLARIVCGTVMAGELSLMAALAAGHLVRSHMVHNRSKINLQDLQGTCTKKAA
Experimental: In order to determine the activity of HMG-CoA reductase, Hulcher's method was employed after some modification (see J. Lipid Res., 14, 625-641(1973)). In this method, the concentration of the coenzyme-A (CoA-SH), which is produced when HMG-CoA is reduced to a mevalonate salt by the action of HMG-CoA reductase, is determined by spectroscopy and the activity of HMG-CoA reductase is calculated therefrom.
3 g of liver tissue taken from each group of rats of Example 2 was washed successively with 100 ml of a cold saline (0.15 M NaCl) and 100 ml of a cold buffer solution A (0.1 M triethanolamine, HCl/0.2 M EDTA/2 mM dithiothreitol (DTT)). The cold buffer solution A was added to the liver tissue in an amount of 2 ml per 1 g of the liver tissue and the mixture was homogenized with a homogenizer. The homogenate was centrifuged at 15,000×g for 15 minutes, and then, the supernatant was ultracentrifuged at 100,000×g for 60 minutes to obtain microsomal precipitates. The precipitates thus obtained was washed with a cold buffer solution A and kept in a 1.5 ml tube at -70° C.
The reaction substrates used in HMG-CoA reductase activity assay were as follows: i) buffer solution B: 0.1 M triethanolamine, HCl/0.02 M EDTA (pH 7.4), ii) HMG-CoA solution: 150 μmoles/culture medium, and iii) NADPH solution: 2 μmoles/culture medium.
The suspension (microsome) was mixed with the reaction substrate and the mixture was placed in a centrifugation tube and reacted at 37° C. for 30 minutes. […]
Then, the reactant was mixed with 20 μl of DTNB buffer solution (3 mM DTNB/0.1 M triethanolamine/0.2 M EDTA, pH 7.4) and the absorbance of the mixture was determined at 412 nm to calculate the amount of CoA-SH (activity of HMG-CoA reductase).
The extent of inhibition of HMG-CoA reductase activity by cinnamic acid derivatives was calculated based on the above result.

[3] = assay type: in vivo, rabbit (New Zealand White); details: rabbits, 1% cholesterol diet plus 0.1% derivative or 1 mg/kg Lovastatin, 8 weeks; for HDL/TC: Control 2.5 ± 0.4; for HDL-C (High density lipoprotein-cholesterol): Control 50 ± 11; for TG (Triglyceride): Control 170 ± 30; for TC (Total cholesterol): Control 1995 ± 472
Experimental: as §1, §2
After eight weeks, the rabbits were anesthetized with an intramuscular injection of ketamine (50 mg/kg) in the femoral region and sacrificed. A blood sample was taken from the heart of each rabbit, allowed to stand for 2 hours and centrifuged at 3,000 rpm for 15 minutes and the supernatant serum was separated and stored in a freezer before use.
The chemical analysis of blood was carried out by employing a blood chemical analyzer (CIBA Corning 550 Express, USA) to determine the changes in GOT, GPT, total cholesterol, HDL-cholesterol and triglyceride levels.

Compound | microscopic features of the liver [1] | fatty liver grade (1+ to 4+) [1] | Inhibition of HMG-CoA reductase activity [2] [%] | HDL/TC [3] [%] | HDL-C (High density lipoprotein-cholesterol) [3] [mg/dL] | TG (Triglyceride) [3] [mg/dL] | TC (Total cholesterol) [3] [mg/dL]
O=C(O)/C=C/c1ccc(O)c(O)c1 [3,4-dihydroxycinnamic acid] | almost all liver cells are of a normal shape | 2.6 ± 0.3 | 44 | 3.4 ± 0.4 | 53 ± 13 | 139 ± 46 | 1559 ± 347
O=C(O)CCc1ccc(O)c(O)c1 [3,4-dihydroxyhydrocinnamic acid] | almost all liver cells are of a normal shape | 2.6 ± 0.3 | 70 | 6.3 ± 1.6 | 80 ± 23 | 108 ± 22 | 1256 ± 150
O=C(O)/C=C/c1ccc(O)cc1 [4-Hydroxycinnamic acid, 4-hydroxycinnamic acid] | almost all liver cells are of a normal shape | 2.7 ± 0.3 | 31 | 3.7 ± 1.3 | 57 ± 28 | 167 ± 43 | 1517 ± 417
